The values that follow come from PMC6017567, “Chemical Constituents from Apios americana and Their Inhibitory Activity on Tyrosinase” (Molecules : A Journal of Synthetic Chemistry and Natural …, 2018).

Data set [1] has as its target T1, tyrosinase (Agaricus bisporus, UniProt C7FF04). In words: Slow-binding (time-dependent) inhibition kinetics. Type of data set: biochemical. Details: purchased Sigma-Aldrich T3824. Conditions: for Time dependence of interaction with tyrosinase: time-course enzyme assay. As to the method: These curves were calculated by the following Equation (1):(1) [P]=vst+vi−vs/kobs[1−exp(−kobst)] where [P] is the concentration of product from the catalytic reaction, and the first-order rate constant (kobs) is the slow-binding constant corresponding to vi and vs.
The plot of kobs versus [inhibitor, I] is represented in Figure 3B.
First, the initial enzyme–ligand complex (E·I) forms rapidly, and then the isomerized enzyme–ligand complex (E*·I) forms slowly. Using Equation (3), k3 , k4 , and Kiapp kinetic parameters were calculated as 0.0041 S^−1, 0.0004 S^−1, and 35.8 µM, respectively (Table 2).
Target sequence in this assay (C7FF04 1-392 limits assumed): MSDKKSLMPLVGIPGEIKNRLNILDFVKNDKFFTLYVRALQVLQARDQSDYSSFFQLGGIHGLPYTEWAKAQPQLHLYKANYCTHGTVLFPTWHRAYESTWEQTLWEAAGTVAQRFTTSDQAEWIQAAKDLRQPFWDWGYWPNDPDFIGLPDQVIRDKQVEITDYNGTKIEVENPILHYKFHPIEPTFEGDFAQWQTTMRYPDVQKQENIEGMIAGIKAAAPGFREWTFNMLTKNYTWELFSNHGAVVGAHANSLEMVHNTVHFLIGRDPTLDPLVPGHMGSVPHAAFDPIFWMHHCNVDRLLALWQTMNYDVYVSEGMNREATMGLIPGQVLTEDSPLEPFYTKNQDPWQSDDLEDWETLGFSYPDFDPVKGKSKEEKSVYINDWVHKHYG

Data set [2] concerns the target T1, tyrosinase. Description: Enzyme kinetics (Lineweaver-Burk and Dixon plots). Type of data set: biochemical. Conditions: Lineweaver-Burk plot. Here is the method:
Enzyme kinetics are used to confirm the binding positions between an enzyme and inhibitor [7]. This study confirmed the effect of the substrate concentration on tyrosinase activity using four different concentrations. The initial velocity (vi) was calculated at steady-state. A Lineweaver–Burk plot was represented by 1/v versus 1/substrate in the presence of inhibitor according to enzyme kinetics theory. Their regression lines intersected the y-axis at the same point and the x-axis at different points.
Target sequence in this assay (C7FF04 2-392): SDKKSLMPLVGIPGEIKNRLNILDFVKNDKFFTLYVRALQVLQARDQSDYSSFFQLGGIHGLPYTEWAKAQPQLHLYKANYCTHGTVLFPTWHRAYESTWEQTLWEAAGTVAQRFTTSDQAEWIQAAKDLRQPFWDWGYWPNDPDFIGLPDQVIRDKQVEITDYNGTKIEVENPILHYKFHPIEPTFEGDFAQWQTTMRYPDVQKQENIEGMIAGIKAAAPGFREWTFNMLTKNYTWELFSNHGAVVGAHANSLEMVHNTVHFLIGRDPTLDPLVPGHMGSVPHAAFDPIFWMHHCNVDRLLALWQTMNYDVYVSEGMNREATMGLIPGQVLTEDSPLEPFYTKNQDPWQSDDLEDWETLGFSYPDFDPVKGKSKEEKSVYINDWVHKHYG

The target in data set [3] is T1, tyrosinase. Set-up: method as in earlier work. As to conditions: ref 8 (Chang et al.); cited from earlier work.
Target sequence in this assay (C7FF04 2-392): as above
The target of data set [4] is T1, tyrosinase. Type of data set: biochemical. Conditions: preincubated with enzyme.
Target sequence in this assay (C7FF04 2-392): as above
Description: The amount of L-DOPA converted from L-tyrosine as substrate of this enzyme was quantified in the presence of each respective compound [7].
Briefly, tyrosinase (~45 U/mL, 130 µL) in 50 µM phosphate buffer (pH 6.8) was added to 96-well plates. Twenty microliters of each respective compound (1 mM) were dissolved in MeOH, and compounds 2 and 8 (diluted to 0.065 mM) were added. Finally, 50 µL 1.5 mM L-tyrosine were added as a substrate. After initiating the enzyme reaction at 37 °C, the products were measured using UV-Vis determination (wavelength, 475 nm) for 20 min. The inhibition ratio was calculated using the following Equation (3):Inhibitory activity (%) = [(Δcontrol − Δinhibitor)/Δcontrol] × 100(3)
[5] abbreviates: time-dependent inhibition, kobs versus [I].

Where two headings read alike, the source gives them in different places.

On to `O=c1c(-c2ccc(O)cc2O)coc2cc(O[C@@H]3O[C@H](CO[C@@H]4O[C@H](CO)[C@@H](O)[C@H](O)[C@H]4O)[C@@H](O)[C@H](O)[C@H]3O)cc(O)c12` [compound 8, 2′-hydroxygenistein-7-O-gentibioside], for which the “Time dependence of interaction with tyrosinase” value on tyrosinase [1] was “did not exhibit this pattern”. The “Binding Mode” value at tyrosinase [2] is “Competitive”.
In the case of `O=c1c(-c2ccc(O)cc2)coc2cc(O)c(O)cc12` [6,7,4′-trihydroxyisolflavone], the Binding Mode result on tyrosinase [3] is “competitive inhibitor”.
As for `O=c1c2c(O)cc(O)cc2oc2oc3cc(O)ccc3c12` [compound 2, lupinalbin A], the “Increase of inhibitory activity by preincubation compared with IC50 in the absence of preincubation” value on tyrosinase [4] is 3 fold. Also, on tyrosinase [1], the Ki stood at 35.8 µM and the “Time dependence of interaction with tyrosinase” value was “time-dependent manner”. Also, on tyrosinase [1] (setting [5]), the k5 amounted to 0.0041 S^−1 and the k6 amounted to 0.0004 S^−1. At tyrosinase [2], the “Binding Mode” value is reported as “Competitive”.
